Reference: patent US8663639B2, “Formulations for treating ocular diseases and conditions” (Santen Pharmaceutical Co., Ltd., priority 2005, dated 2014)
Like-named read-outs stand apart in the source and are kept apart here.

Experiment: Topical administration (eye drops) of formulation #340, rapamycin levels in blood, cornea, retina choroid, sclera and vitreous (Tables 3-6)
Assay type: in vivo
Conditions: rabbit, formulation #340 topical; for concentration at 8 day / concentration at 10 day / concentration at 12 day / concentration at 14 day: Group III (two drops once a day on both eyes for 6 days)
Experimental: Both eyes (or one eye depending on the study) of each animal received one or two drops (40 μl per drop) of the studied formulations using a calibrated pipette on day 0 (day of dosing).
For Tables 3-6, the solution of Example 46 (formulation #340) was administered two drops twice a day on both eyes, one time for Group I, two drops once a day on one eye, one time for Group II, and two drops once a day on both eyes for 6 days in Group III. In Group II, the right eye (OD) but not the left eye (OS) received eye drops. In a further study, one drop of the formulation #340 (40 μL containing 880 μg rapamycin) was administered on day zero.

concentration at 1 day (sclera, 2 drops (40 μl per drop) on one eye (right eye, OD), Group II (two drops once a day on one eye, one time), OD, day 1, n = 1, read-out: Rapamycin level, sclera): 421 ng/g | concentration at 2 day (sclera, 2 drops (40 μl per drop) on one eye (right eye, OD), Group II (two drops once a day on one eye, one time), OD, day 2, n = 1, read-out: Rapamycin level, sclera): 1350 ng/g | concentration at 3 day (sclera, 2 drops (40 μl per drop) on one eye (right eye, OD), Group II (two drops once a day on one eye, one time), OD, day 3, n = 1, read-out: Rapamycin level, sclera): 541 ng/g | concentration at 1 day (sclera, 2 drops (40 μl per drop) on one eye (right eye, OD), Group II (two drops once a day on one eye, one time), OS, day 1, n = 1, read-out: Rapamycin level, sclera): 34.2 ng/g | concentration at 2 day (sclera, 2 drops (40 μl per drop) on one eye (right eye, OD), Group II (two drops once a day on one eye, one time), OS, day 2, n = 1, read-out: Rapamycin level, sclera): 144 ng/g | concentration at 3 day (sclera, 2 drops (40 μl per drop) on one eye (right eye, OD), Group II (two drops once a day on one eye, one time), OS, day 3, n = 1, read-out: Rapamycin level, sclera): 104 ng/g | concentration at 8 day (sclera, 2 drops (40 μl per drop) per eye, both eyes, day 8, n = 2, read-out: Rapamycin level, sclera): 895 ng/g | concentration at 10 day (sclera, 2 drops (40 μl per drop) per eye, both eyes, day 10, n = 2, read-out: Rapamycin level, sclera): 613 ng/g | concentration at 12 day (sclera, 2 drops (40 μl per drop) per eye, both eyes, day 12, n = 2, read-out: Rapamycin level, sclera): 131 ng/g | concentration at 14 day (sclera, 2 drops (40 μl per drop) per eye, both eyes, day 14, n = 2, read-out: Rapamycin level, sclera): 420 ng/g | concentration at 1 day (sclera, 2 drops (40 μl per drop) per eye, both eyes, twice a day, Group I (two drops twice a day on both eyes, one time), day 1, n = 2, read-out: Rapamycin level, sclera): 90.8 ng/g | concentration at 2 day (sclera, 2 drops (40 μl per drop) per eye, both eyes, twice a day, Group I (two drops twice a day on both eyes, one time), day 2, n = 2, read-out: Rapamycin level, sclera): 751 ng/g | concentration at 3 day (sclera, 2 drops (40 μl per drop) per eye, both eyes, twice a day, Group I (two drops twice a day on both eyes, one time), day 3, n = 2, read-out: Rapamycin level, sclera): 351 ng/g | concentration at 1 day (vitreous, 2 drops (40 μl per drop) on one eye (right eye, OD), Group II (two drops once a day on one eye, one time), OD, day 1, n = 1, read-out: Rapamycin level, vitreous): 2.06 ng/mL | concentration at 2 day (vitreous, 2 drops (40 μl per drop) on one eye (right eye, OD), Group II (two drops once a day on one eye, one time), OD, day 2, n = 1, read-out: Rapamycin level, vitreous): 5.01 ng/mL | concentration at 3 day (vitreous, 2 drops (40 μl per drop) on one eye (right eye, OD), Group II (two drops once a day on one eye, one time), OD, day 3, n = 1, read-out: Rapamycin level, vitreous): 3.96 ng/mL | concentration at 1 day (vitreous, 2 drops (40 μl per drop) on one eye (right eye, OD), Group II (two drops once a day on one eye, one time), OS, day 1, n = 1, read-out: Rapamycin level, vitreous): 1 ng/mL | concentration at 2 day (vitreous, 2 drops (40 μl per drop) on one eye (right eye, OD), Group II (two drops once a day on one eye, one time), OS, day 2, n = 1, read-out: Rapamycin level, vitreous): 2.95 ng/mL | concentration at 3 day (vitreous, 2 drops (40 μl per drop) on one eye (right eye, OD), Group II (two drops once a day on one eye, one time), OS, day 3, n = 1, read-out: Rapamycin level, vitreous): 4 ng/mL | concentration at 8 day (vitreous, 2 drops (40 μl per drop) per eye, both eyes, day 8, n = 2, read-out: Rapamycin level, vitreous): 19.7 ng/mL | concentration at 10 day (vitreous, 2 drops (40 μl per drop) per eye, both eyes, day 10, n = 2, read-out: Rapamycin level, vitreous): 7.9 ng/mL | concentration at 12 day (vitreous, 2 drops (40 μl per drop) per eye, both eyes, day 12, n = 2, read-out: Rapamycin level, vitreous): 1.46 ng/mL | concentration at 14 day (vitreous, 2 drops (40 μl per drop) per eye, both eyes, day 14, n = 2, read-out: Rapamycin level, vitreous): 5.66 ng/mL | concentration at 1 day (vitreous, 2 drops (40 μl per drop) per eye, both eyes, twice a day, Group I (two drops twice a day on both eyes, one time), day 1, n = 2, read-out: Rapamycin level, vitreous): 1.24 ng/mL | concentration at 2 day (vitreous, 2 drops (40 μl per drop) per eye, both eyes, twice a day, Group I (two drops twice a day on both eyes, one time), day 2, n = 2, read-out: Rapamycin level, vitreous): 5.41 ng/mL | concentration at 3 day (vitreous, 2 drops (40 μl per drop) per eye, both eyes, twice a day, Group I (two drops twice a day on both eyes, one time), day 3, n = 2, read-out: Rapamycin level, vitreous): 3.03 ng/mL
Compound: CO[C@H]1C[C@@H]2CC[C@@H](C)[C@@](O)(O2)C(=O)C(=O)N2CCCC[C@H]2C(=O)O[C@H]([C@H](C)C[C@@H]2CC[C@@H](O)[C@H](OC)C2)CC(=O)[C@H](C)/C=C(\C)[C@@H](O)[C@@H](OC)C(=O)[C@H](C)C[C@H](C)/C=C/C=C/C=C/1C [Rapamycin, rapamycin]
